Patent US20240269133A1, “METHODS OF TREATING INTERSTITIAL CYSTITIS/BLADDER PAIN SYNDROME” (Purdue Pharma L.P., priority 2021, published 2024)

How the values were obtained:
[1] = test system: CYP-induced visceral pain; assay: Cyclophosphamide (CYP)-induced visceral pain model (acute cystitis), von Frey testing; type: in vivo, female Sprague-Dawley rats; settings: for AUC 1-6 g (allodynia) / Nociceptive threshold: mean ± s.e.m.
[2] = Urine concentration after a single oral dose (methyl cellulose suspension); type: in vivo, humans; settings: human
[3] = 30 mg/kg p.o., overall 2-24 h after CYP

## CC(C)Cc1ccc(C(C)C(=O)O)cc1 (centres unmarked) [Ibuprofen, reference compound]
[1]; 300 mg/kg p.o., all along the observation period (2-24 h)
  Effect on nociceptive scores vs vehicle: significantly decreased
[1]; 300 mg/kg p.o., overall 2-24 h after CYP
  Effect on nociceptive threshold vs vehicle: significant overall increase

## O=C(O)c1nc2ccccc2n([C@H]2C[C@H]3CCC[C@@H](C2)N3C2CC3CCCC(C3)C2)c1=O (some centres unmarked) [compound of formula (IA)]
[1]; 30 mg/kg p.o., +2 h after CYP
  AUC 1-6 g (allodynia): 19.8±6.9 % scores × g
  Nociceptive threshold: 6.6 ± 0.8 g
[1]; 30 mg/kg p.o., +3 h after CYP
  AUC 1-6 g (allodynia): 19.3±6.3 % scores × g
  Nociceptive threshold: 6.3 ± 1.2 g
[1]; 30 mg/kg p.o., +4 h after CYP
  AUC 1-6 g (allodynia): 34.1±7.9 % scores × g
  Nociceptive threshold: 4.8 ± 0.8 g
[1]; 30 mg/kg p.o., +24 h after CYP
  AUC 1-6 g (allodynia): 61.8±15.7 % scores × g
  Nociceptive threshold: 3.7 ± 0.8 g
[1]; 30 mg/kg p.o., CYP-injected rats, overall 2-24 h
  Effect on nociceptive threshold vs vehicle: overall inhibitory effect
[1]; 30 mg/kg p.o., from 2 h up to 24 h after CYP
  Effect on nociceptive scores vs vehicle: significant decrease
[1]; [3]
  Effect on AUC 1-6 g vs vehicle: overall decrease
  Effect on CYP-induced AUC 6-26 g increase (hyperalgesia) vs vehicle: significant overall inhibitory effect
[2]; 0.2 mg single oral dose, 0 to 8 h
  Urine concentration, mean: 2311 nM
[2]; 0.2 mg single oral dose, 8 to 16 h
  Urine concentration, mean: 394 nM
[2]; 0.2 mg single oral dose, 16 to 24 h
  Urine concentration, mean: BQL
[2]; 0.2 mg single oral dose, 24 to 32 h
  Urine concentration, mean: BQL
[2]; 0.2 mg single oral dose, 32 to 40 h
  Urine concentration, mean: BQL
[2]; 0.2 mg single oral dose, 40 to 48 h
  Urine concentration, mean: BQL
[2]; 0.6 mg single oral dose, 0 to 8 h
  Urine concentration, mean: 1641 nM
[2]; 0.6 mg single oral dose, 8 to 16 h
  Urine concentration, mean: 531 nM
[2]; 0.6 mg single oral dose, 16 to 24 h
  Urine concentration, mean: BQL
[2]; 0.6 mg single oral dose, 24 to 32 h
  Urine concentration, mean: BQL
[2]; 0.6 mg single oral dose, 32 to 40 h
  Urine concentration, mean: BQL
[2]; 0.6 mg single oral dose, 40 to 48 h
  Urine concentration, mean: BQL
[2]; 2 mg single oral dose, 0 to 8 h
  Urine concentration, mean: 10809 nM
[2]; 2 mg single oral dose, 8 to 16 h
  Urine concentration, mean: 1440 nM
[2]; 2 mg single oral dose, 16 to 24 h
  Urine concentration, mean: 400 nM
[2]; 2 mg single oral dose, 24 to 32 h
  Urine concentration, mean: BQL
[2]; 2 mg single oral dose, 32 to 40 h
  Urine concentration, mean: BQL
[2]; 2 mg single oral dose, 40 to 48 h
  Urine concentration, mean: BQL
[2]; 10 mg single oral dose, 0 to 8 h
  Urine concentration, mean: 30964 nM
[2]; 10 mg single oral dose, 8 to 16 h
  Urine concentration, mean: 14181 nM
[2]; 10 mg single oral dose, 16 to 24 h
  Urine concentration, mean: 1994 nM
[2]; 10 mg single oral dose, 24 to 32 h
  Urine concentration, mean: 535 nM
[2]; 10 mg single oral dose, 32 to 40 h
  Urine concentration, mean: 240 nM
[2]; 10 mg single oral dose, 40 to 48 h
  Urine concentration, mean: BQL
